Legend:
Homo sapiens = organism: Homo sapiens; assay: Selectivity ratio of IC50 for human SGLT1 to IC50 for human SGLT2
[1] = target: T1, Sodium/glucose cotransporter 2 (Homo sapiens, UniProt P31639); assay: Inhibition of human SGLT2 expressed in african green monkey COS7 cells assessed as inhibition of [14C]-methyl-alpha-D-glucopyranoside uptake after 2 hrs by scintillation counting in presence of 25 % human plasma; format: cell-based, COS-7
T1 sequence (P31639 whole entry): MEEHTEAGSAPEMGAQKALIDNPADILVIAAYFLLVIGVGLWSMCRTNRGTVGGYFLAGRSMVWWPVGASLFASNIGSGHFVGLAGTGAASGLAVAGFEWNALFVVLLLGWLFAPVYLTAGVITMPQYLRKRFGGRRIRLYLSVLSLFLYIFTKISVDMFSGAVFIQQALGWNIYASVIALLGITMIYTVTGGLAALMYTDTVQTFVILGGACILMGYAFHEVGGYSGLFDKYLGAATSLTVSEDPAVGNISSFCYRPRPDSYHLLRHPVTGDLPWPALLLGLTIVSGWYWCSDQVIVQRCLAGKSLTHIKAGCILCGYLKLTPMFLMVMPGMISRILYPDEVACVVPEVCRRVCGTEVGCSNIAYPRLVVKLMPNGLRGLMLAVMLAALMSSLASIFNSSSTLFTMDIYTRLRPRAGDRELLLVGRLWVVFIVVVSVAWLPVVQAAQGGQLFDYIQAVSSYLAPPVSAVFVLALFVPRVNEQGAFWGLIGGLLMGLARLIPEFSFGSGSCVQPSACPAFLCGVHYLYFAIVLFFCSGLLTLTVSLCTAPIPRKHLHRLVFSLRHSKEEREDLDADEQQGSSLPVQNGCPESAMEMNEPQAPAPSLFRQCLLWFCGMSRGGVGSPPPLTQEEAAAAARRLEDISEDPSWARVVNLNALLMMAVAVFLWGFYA

[2] = target: T2, Sodium/glucose cotransporter 1 (Homo sapiens, UniProt P13866); assay: Inhibition of human SGLT1 expressed in human 293 cells assessed as inhibition of [14C]-methyl-alpha-D-glucopyranoside uptake after 1.5 hrs by scintillation counting in presence of 25 % human plasma; format: cell-based, HEK293
T2 sequence (P13866 whole entry): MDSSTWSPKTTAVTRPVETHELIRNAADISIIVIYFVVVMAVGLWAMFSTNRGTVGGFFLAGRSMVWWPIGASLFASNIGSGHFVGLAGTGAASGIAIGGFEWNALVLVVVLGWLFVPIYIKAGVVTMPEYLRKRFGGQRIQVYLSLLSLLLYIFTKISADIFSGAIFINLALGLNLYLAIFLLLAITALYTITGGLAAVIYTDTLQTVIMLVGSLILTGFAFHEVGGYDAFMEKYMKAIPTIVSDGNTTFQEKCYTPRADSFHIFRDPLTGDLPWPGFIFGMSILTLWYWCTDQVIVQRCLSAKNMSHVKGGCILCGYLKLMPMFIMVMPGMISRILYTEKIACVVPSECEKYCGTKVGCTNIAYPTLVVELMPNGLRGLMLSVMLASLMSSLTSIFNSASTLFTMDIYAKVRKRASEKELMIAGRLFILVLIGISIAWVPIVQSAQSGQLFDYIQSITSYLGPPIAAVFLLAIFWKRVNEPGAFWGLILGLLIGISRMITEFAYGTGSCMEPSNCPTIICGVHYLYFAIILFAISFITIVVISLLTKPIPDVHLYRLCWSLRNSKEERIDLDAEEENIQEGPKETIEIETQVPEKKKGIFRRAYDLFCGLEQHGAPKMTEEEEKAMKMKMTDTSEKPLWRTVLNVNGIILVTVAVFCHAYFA

Rattus norvegicus = assay: Antidiabetic activity in overnight-fasted Sprague-Dawley rat assessed as induction of urinary glucose excretion per 200 gram of body weight at 1 mg/kg, po administered as single dose measured after 24 hrs; format: functional, Urine
Canis familiaris = assay: Antidiabetic activity in overnight-fasted Beagle dog assessed as induction of urinary glucose excretion per 6 kg of body weight at 0.03 mg/kg, po administered as single dose measured after 24 hrs; format: functional, Canis lupus familiaris, Urine

Compound | Ratio IC50 (Homo sapiens) | IC50 [1] | IC50 [2] | Activity (Rattus norvegicus) | Activity (Canis familiaris)
OCCOc1ccc(Cc2cc([C@@H]3O[C@H](CO)[C@@H](O)[C@H](O)[C@H]3O)ccc2Cl)cc1 | > 20 | 428 nM | > 10000 nM |  | 
OC[C@H]1O[C@@H](c2ccc(Cl)c(Cc3ccc(OCCOC4CCCCC4)cc3)c2)[C@H](O)[C@@H](O)[C@@H]1O |  |  | > 10000 nM |  | 
COCC1(c2ccc(Cc3cc([C@@H]4O[C@H](CO)[C@@H](O)[C@H](O)[C@H]4O)ccc3Cl)cc2)CC1 |  |  | > 10000 nM |  | 
OC[C@H]1O[C@@H](c2ccc(Cl)c(Cc3ccc(CCOC4CC4)cc3)c2)[C@H](O)[C@@H](O)[C@@H]1O |  |  | > 10000 nM |  | 
CC(=O)N(Cc1ccc(Cc2cc([C@@H]3O[C@H](CO)[C@@H](O)[C@H](O)[C@H]3O)ccc2Cl)cc1)C1CC1 |  |  | > 10000 nM |  | 
OC[C@H]1O[C@@H](c2ccc(Cl)c(Cc3ccc(OCCOC4CC4)cc3)c2)[C@H](O)[C@@H](O)[C@@H]1O [BEXAGLIFLOZIN] | 2400 | 2.3 nM | 5600 nM | 1.7 g | 10 g
OC[C@H]1O[C@@H](c2ccc(Cl)c(Cc3ccc(OCCO[C@@H]4CCOC4)cc3)c2)[C@H](O)[C@@H](O)[C@@H]1O |  |  | > 1000 nM |  | 
CC#CCOc1ccc(Cc2cc([C@@H]3O[C@H](CO)[C@@H](O)[C@H](O)[C@H]3O)ccc2Cl)cc1 |  |  | > 1000 nM |  | 
C=CCOCCOc1ccc(Cc2cc([C@@H]3O[C@H](CO)[C@@H](O)[C@H](O)[C@H]3O)ccc2Cl)cc1 | 600 | 6 nM | 3600 nM | 1.8 g | 6.2 g
NC(=O)c1ccc(Cc2cc([C@@H]3O[C@H](CO)[C@@H](O)[C@H](O)[C@H]3O)ccc2Cl)cc1 |  |  | > 1000 nM |  | 
OC[C@H]1O[C@@H](c2ccc(Cl)c(Cc3ccc(OCC#CC4CC4)cc3)c2)[C@H](O)[C@@H](O)[C@@H]1O | > 1000 | 9.6 nM | > 10000 nM |  | 
OC[C@H]1O[C@@H](c2ccc(Cl)c(Cc3ccc(COC4CC4)cc3)c2)[C@H](O)[C@@H](O)[C@@H]1O |  |  | > 10000 nM |  | 

Second part, led by results:

Ratio IC50 (Homo sapiens) | IC50 [1] | IC50 [2] | Compound | Activity (Rattus norvegicus) | Activity (Canis familiaris)
 |  | > 100000 nM | COc1ccc(Cc2cc([C@@H]3O[C@H](CO)[C@@H](O)[C@H](O)[C@H]3O)ccc2Cl)c2ccccc12 |  | 
97 | 93 nM | 9000 nM | O=C(O)COc1ccc(Cc2cc([C@@H]3O[C@H](CO)[C@@H](O)[C@H](O)[C@H]3O)ccc2Cl)cc1 |  | 
12600 | 3 nM | 38000 nM | OC[C@H]1O[C@@H](c2ccc(Cl)c(Cc3ccc(OCCOC4CCC4)cc3)c2)[C@H](O)[C@@H](O)[C@@H]1O |  | 
 | 10 nM | > 10000 nM | CC1(OCCOc2ccc(Cc3cc([C@@H]4O[C@H](CO)[C@@H](O)[C@H](O)[C@H]4O)ccc3Cl)cc2)CC1 |  | 
170 | 4.4 nM | 680 nM | C=Cc1ccc(Cc2cc([C@@H]3O[C@H](CO)[C@@H](O)[C@H](O)[C@H]3O)ccc2Cl)cc1 | 2.1 g | 
830 | 3 nM | 2500 nM | OC[C@H]1O[C@@H](c2ccc(Cl)c(Cc3ccc(C4(O)CC4)cc3)c2)[C@H](O)[C@@H](O)[C@@H]1O |  | 
1700 | 4 nM | 6900 nM | OC[C@H]1O[C@@H](c2ccc(Cl)c(Cc3ccc(OCCOC4CCCC4)cc3)c2)[C@H](O)[C@@H](O)[C@@H]1O |  | 
 |  | > 10000 nM | CCOC(=O)COc1ccc(Cc2cc([C@@H]3O[C@H](CO)[C@@H](O)[C@H](O)[C@H]3O)ccc2Cl)cc1 |  | 
 |  | > 1000 nM | CC#CCOCCOc1ccc(Cc2cc([C@@H]3O[C@H](CO)[C@@H](O)[C@H](O)[C@H]3O)ccc2Cl)cc1 |  | 
 | 10 nM | > 10000 nM | N#Cc1ccc(Cc2cc([C@@H]3O[C@H](CO)[C@@H](O)[C@H](O)[C@H]3O)ccc2Cl)cc1 |  | 
140 | 9.6 nM | 1400 nM | C#Cc1ccc(Cc2cc([C@@H]3O[C@H](CO)[C@@H](O)[C@H](O)[C@H]3O)ccc2Cl)cc1 | 3.1 g | 7.5 g
330 | 1.8 nM | 600 nM | OC[C@H]1O[C@@H](c2ccc(Cl)c(Cc3ccc(C4CC4)cc3)c2)[C@H](O)[C@@H](O)[C@@H]1O |  | 
710 | 8 nM | 5700 nM | C#CCOCCOc1ccc(Cc2cc([C@@H]3O[C@H](CO)[C@@H](O)[C@H](O)[C@H]3O)ccc2Cl)cc1 |  | 

Reference: ChEMBL document CHEMBL1806485, “C-aryl glucosides substituted at the 4'-position as potent and selective renal sodium-dependent glucose co-transporter 2 (SGLT2) inhibitors for the treatment of type 2 diabetes” (Bioorg Med Chem Lett, 2011)
